Reference: patent publication US20080255206A1, “Rxr Agonists and Antagonists, Alone or in Combination with Ppar Ligands, in the Treatment of Metabolic and Cardiovascular Diseases” (priority 2005, published 2008)

What was measured:
synovial fibroblasts = assay: In vitro cartilage degradation by synovial fibroblasts (sGAG release); type: cell-based, human; conditions: for sGAG release: 14 days
Experimental: Furthermore, it is determined whether this is accompanied by a modulation in the accumulation of the mRNA encoding catabolic enzyme matrix metalloproteinase-1 (MMP-1), responsible for degradation of human cartilage and consequently joint destruction in man. Adherent synovial fluid cells taken from a patient with RA are used after 5 passages in an in vitro assay for cartilage destruction. The cells incubated in flasks coated with 0.1% (0.1 g/100 ml) human cartilage powder are fixed using Matrigel® (BD Biosciences, Becton, Dickinson & Co., Boston, Mass., USA). The release of sulphated glycosaminoglycan (sGAG) into the culture medium is monitored by a commercial colorimetric test according to a method described by S. Björnsson, see Anal. […] This is conducted in the presence or absence of IL-1β (100 pg/ml).

MMP-1 mRNA = MMP-1 mRNA in synovial fibroblasts (real time PCR); type: cell-based, human
Experimental: Furthermore, it is determined whether this is accompanied by a modulation in the accumulation of the mRNA encoding catabolic enzyme matrix metalloproteinase-1 (MMP-1), responsible for degradation of human cartilage and consequently joint destruction in man. Adherent synovial fluid cells taken from a patient with RA are used after 5 passages in an in vitro assay for cartilage destruction. The cells incubated in flasks coated with 0.1% (0.1 g/100 ml) human cartilage powder are fixed using Matrigel® (BD Biosciences, Becton, Dickinson & Co., Boston, Mass., USA).
This is conducted in the presence or absence of IL-1β (100 pg/ml).

db/db mice = assay: Investigation with db/db mice (blood glucose and lipids); type: in vivo, mouse; conditions: for Glucose Diff. D o − D 12 / HDL-cholesterol Diff. D o − D 12 / Total cholesterol Diff. D o − D 12 / Triglycerides Diff. D o − D 12: change day 0 to day 12; for Glucose D o / HDL-cholesterol D o / Total cholesterol D o / Triglycerides D o: day 0; for Glucose D 12 / HDL-cholesterol D 12 / Total cholesterol D 12 / Triglycerides D 12: day 12; for Glucose D-4 / HDL-cholesterol D-4 / Total cholesterol D-4 / Triglycerides D-4: day −4
Experimental: The following compounds are investigated and compared to placebo (vehicle control).
The mentioned 3 compounds are tested in db/db mice during a time when diabetes is in a rapid developing stage. […] Each dosage group and the vehicle group comprise 7 mice. The suspensions used are prepared with peroxide free arachis oil as vehicle. Blood samples are collected by retro-orbital bleeding at days −4, 0 and 12. The blood levels of glucose, triglycerides, total cholesterol, and HDL-cholesterol are determined.
For evaluation of efficacy, the difference between the values of glucose, triglycerides, total cholesterol and HDL-cholesterol changing from day 0 to day 12 is determined and expressed in %. […] Overall evaluation consists in determining the efficacy of the compounds by calculating the whole extent of the effect expressed in %. […] This value is considered as a valuable indicator for the efficacy of the investigated compounds administered in a tolerated dose.

[1] = 30 mg/kg/day group versus vehicle group

Compound: CC1=C(/C=C/C(C)=C\C=C\C(C)=C\C(=O)O)C(C)(C)CCC1 [9-cis RA, 9-cis retinoic acid, reference compound]
- Effect on cartilage destruction in vitro (in words) (synovial fibroblasts; absence of IL-1β): increases cartilage destruction in vitro in a dose-dependent manner
- sGAG release (synovial fibroblasts; absence of IL-1β, 10^−7 M): 189 µg/mL
- sGAG release (synovial fibroblasts; absence of IL-1β, 10^−8 M): 107 µg/mL
- Cumulative sGAG (synovial fibroblasts; absence of IL-1β, 10^−8 M, day 7): 44 µg/mL
- Cumulative sGAG (synovial fibroblasts; absence of IL-1β, 10^−8 M, day 14): 107 µg/mL
- Cumulative sGAG (synovial fibroblasts; absence of IL-1β, 10^−8 M, day 21): 206 µg/mL
- Cumulative sGAG (synovial fibroblasts; absence of IL-1β, 10^−8 M, day 28): 253 µg/mL
- Cumulative sGAG (synovial fibroblasts; absence of IL-1β, 10^−8 M, day 35): 292 µg/mL
- sGAG release (synovial fibroblasts; absence of IL-1β, 10^−9 M): 64 µg/mL
- sGAG release (synovial fibroblasts; presence of 100 pg/ml IL-1β, 10^−7 M): 221 µg/mL
- sGAG release (synovial fibroblasts; presence of 100 pg/ml IL-1β, 10^−8 M): 189 µg/mL
- Cumulative sGAG (synovial fibroblasts; presence of 100 pg/ml IL-1β, 10^−8 M, day 7): 68 µg/mL
- Cumulative sGAG (synovial fibroblasts; presence of 100 pg/ml IL-1β, 10^−8 M, day 14): 189 µg/mL
- Cumulative sGAG (synovial fibroblasts; presence of 100 pg/ml IL-1β, 10^−8 M, day 21): 330 µg/mL
- Cumulative sGAG (synovial fibroblasts; presence of 100 pg/ml IL-1β, 10^−8 M, day 28): 407 µg/mL
- Cumulative sGAG (synovial fibroblasts; presence of 100 pg/ml IL-1β, 10^−8 M, day 35): 441 µg/mL
- sGAG release (synovial fibroblasts; presence of 100 pg/ml IL-1β, 10^−9 M): 204 µg/mL
- MMP-1 mRNA, fold increase of baseline value (MMP-1 mRNA; 10^−7 M, after 24 hours): 2.60 relative units
- MMP-1 mRNA, fold increase of baseline value (MMP-1 mRNA; 10^−8 M, 0 hours): 1 relative units
- MMP-1 mRNA, fold increase of baseline value (MMP-1 mRNA; 10^−8 M, 2 hours): 0.98 relative units
- MMP-1 mRNA, fold increase of baseline value (MMP-1 mRNA; 10^−8 M, 6 hours): 1.31 relative units
- MMP-1 mRNA, fold increase of baseline value (MMP-1 mRNA; 10^−8 M, 12 hours): 3.39 relative units
- MMP-1 mRNA, fold increase of baseline value (MMP-1 mRNA; 10^−8 M, 24 hours): 3.79 relative units
- MMP-1 mRNA, fold increase of baseline value (MMP-1 mRNA; 10^−8 M, 48 hours): 1.47 relative units
- MMP-1 mRNA, fold increase of baseline value (MMP-1 mRNA; 10^−8 M, after 24 hours): 3.39 relative units
- MMP-1 mRNA, fold increase of baseline value (MMP-1 mRNA; 10^−9 M, after 24 hours): 1.54 relative units

Compound: CC1=C(/C=C/C2=C(/C=C/C(C)=C/C(=O)O)CCCCC2)C(C)(C)CCC1 [Compound 1, (2E,4E)-3-methyl-5-[2-[(E)-2-(2,6,6-trimethyl-1-cyclohexen-1-yl)ethenyl]-1-cyclohepten-1-yl]-2,4-pentadienoic acid]
- Glucose Diff. D o − D 12 (db/db mice; 0.3 mg/kg/day i.p.): +57.5%
- HDL-cholesterol Diff. D o − D 12 (db/db mice; 0.3 mg/kg/day i.p.): −3.2%
- Total cholesterol Diff. D o − D 12 (db/db mice; 0.3 mg/kg/day i.p.): −14.1%
- Triglycerides Diff. D o − D 12 (db/db mice; 0.3 mg/kg/day i.p.): +25.4%
- Glucose D o (db/db mice; 0.3 mg/kg/day i.p.): 207 mg/dL
- HDL-cholesterol D o (db/db mice; 0.3 mg/kg/day i.p.): 3.78 mmol/L
- Total cholesterol D o (db/db mice; 0.3 mg/kg/day i.p.): 4.27 mmol/L
- Triglycerides D o (db/db mice; 0.3 mg/kg/day i.p.): 1.73 mmol/L
- Glucose D 12 (db/db mice; 0.3 mg/kg/day i.p.): 326 mg/dL
- HDL-cholesterol D 12 (db/db mice; 0.3 mg/kg/day i.p.): 2.69 mmol/L
- Total cholesterol D 12 (db/db mice; 0.3 mg/kg/day i.p.): 3.67 mmol/L
- Triglycerides D 12 (db/db mice; 0.3 mg/kg/day i.p.): 2.17 mmol/L
- Glucose D-4 (db/db mice; 0.3 mg/kg/day i.p.): 138 mg/dL
- HDL-cholesterol D-4 (db/db mice; 0.3 mg/kg/day i.p.): 2.65 mmol/L
- Total cholesterol D-4 (db/db mice; 0.3 mg/kg/day i.p.): 4.26 mmol/L
- Triglycerides D-4 (db/db mice; 0.3 mg/kg/day i.p.): 1.83 mmol/L
- Glucose levels (in words) (db/db mice; 3 mg/kg/day): no significant change
- HDL-cholesterol levels (in words) (db/db mice; 3 mg/kg/day): not influenced
- Triglyceride levels (in words) (db/db mice; 3 mg/kg/day): hardly influenced
- Glucose Diff. D o − D 12 (db/db mice; 3.0 mg/kg/day i.p.): +40.7%
- HDL-cholesterol Diff. D o − D 12 (db/db mice; 3.0 mg/kg/day i.p.): −19.6%
- Total cholesterol Diff. D o − D 12 (db/db mice; 3.0 mg/kg/day i.p.): −19.9%
- Triglycerides Diff. D o − D 12 (db/db mice; 3.0 mg/kg/day i.p.): +15.3%
- Glucose D o (db/db mice; 3.0 mg/kg/day i.p.): 194 mg/dL
- HDL-cholesterol D o (db/db mice; 3.0 mg/kg/day i.p.): 3.37 mmol/L
- Total cholesterol D o (db/db mice; 3.0 mg/kg/day i.p.): 4.68 mmol/L
- Triglycerides D o (db/db mice; 3.0 mg/kg/day i.p.): 1.83 mmol/L
- Glucose D 12 (db/db mice; 3.0 mg/kg/day i.p.): 273 mg/dL
- HDL-cholesterol D 12 (db/db mice; 3.0 mg/kg/day i.p.): 2.71 mmol/L
- Total cholesterol D 12 (db/db mice; 3.0 mg/kg/day i.p.): 3.75 mmol/L
- Triglycerides D 12 (db/db mice; 3.0 mg/kg/day i.p.): 2.11 mmol/L
- Glucose D-4 (db/db mice; 3.0 mg/kg/day i.p.): 155 mg/dL
- HDL-cholesterol D-4 (db/db mice; 3.0 mg/kg/day i.p.): 2.53 mmol/L
- Total cholesterol D-4 (db/db mice; 3.0 mg/kg/day i.p.): 4.25 mmol/L
- Triglycerides D-4 (db/db mice; 3.0 mg/kg/day i.p.): 1.85 mmol/L
- Glucose levels (in words) (db/db mice; 30 mg/kg/day): decrease markedly
- HDL-cholesterol levels (in words) (db/db mice; 30 mg/kg/day): markedly increased
- Total cholesterol levels (in words) (db/db mice; 30 mg/kg/day): slightly higher
- Triglyceride levels (in words) (db/db mice; 30 mg/kg/day): decreasing significantly
- Overall extent of the effect on blood levels of Glucose (db/db mice; [1]): −62.5%
- Overall extent of the effect on blood levels of HDL-cholesterol (db/db mice; [1]): +18.4%
- Overall extent of the effect on blood levels of Total cholesterol (db/db mice; [1]): −16.6%
- Overall extent of the effect on blood levels of Triglycerides (db/db mice; [1]): −21.5%
- Glucose Diff. D o − D 12 (db/db mice; 30 mg/kg/day i.p.): −12.3%
- HDL-cholesterol Diff. D o − D 12 (db/db mice; 30 mg/kg/day i.p.): +14.6%
- Total cholesterol Diff. D o − D 12 (db/db mice; 30 mg/kg/day i.p.): +7.8%
- Triglycerides Diff. D o − D 12 (db/db mice; 30 mg/kg/day i.p.): +0.6%
- Glucose D o (db/db mice; 30 mg/kg/day i.p.): 335 mg/dL
- HDL-cholesterol D o (db/db mice; 30 mg/kg/day i.p.): 2.94 mmol/L
- Total cholesterol D o (db/db mice; 30 mg/kg/day i.p.): 4.21 mmol/L
- Triglycerides D o (db/db mice; 30 mg/kg/day i.p.): 1.7 mmol/L
- Glucose D 12 (db/db mice; 30 mg/kg/day i.p.): 206 mg/dL
- HDL-cholesterol D 12 (db/db mice; 30 mg/kg/day i.p.): 3.37 mmol/L
- Total cholesterol D 12 (db/db mice; 30 mg/kg/day i.p.): 4.54 mmol/L
- Triglycerides D 12 (db/db mice; 30 mg/kg/day i.p.): 1.71 mmol/L
- Glucose D-4 (db/db mice; 30 mg/kg/day i.p.): 174 mg/dL
- HDL-cholesterol D-4 (db/db mice; 30 mg/kg/day i.p.): 2.46 mmol/L
- Total cholesterol D-4 (db/db mice; 30 mg/kg/day i.p.): 4.37 mmol/L
- Triglycerides D-4 (db/db mice; 30 mg/kg/day i.p.): 2.13 mmol/L
